Measured values as given in PubChem BioAssay AID330 (DTP/NCI, 2004).
Values joined by “and” are separate entries in the source; they are usually repeats but may differ in a detail not shown here. Equal entries are not always repeated. Inconclusive results and toxic doses are left out. How the source made its calls: active means survival T/C of 150% or more; inactive means T/C below 125% in these data.

Tested on: P388 leukemia ip, CD2F1 mice, survival T/C
Test: NCI In Vivo Anticancer Drug Screen. Data for tumor model P388 Leukemia (intraperitoneal) in CD2F1 (CDF1) mice
Settings: endpoint: median survival time, higher = longer survival
How it was run: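 Mice carrying the transplanted tumor received test compound or vehicle. Survival was recorded in each group, and the value is the treated-group measurement divided by that of the vehicle-treated control group.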

[1] = dose: 12.5 mg/kg/injection, schedule: Q01DX009 (ip), vehicle: saline
[2] = dose: 12.5 mg/kg/injection, schedule: Q04DX003 (ip), vehicle: saline
[3] = dose: 25.0 mg/kg/injection, schedule: Q01DX009 (ip), vehicle: saline
[4] = dose: 25.0 mg/kg/injection, schedule: Q04DX003 (ip), vehicle: saline
[5] = dose: 50.0 mg/kg/injection, schedule: Q01DX009 (ip), vehicle: saline
[6] = dose: 50.0 mg/kg/injection, schedule: Q04DX003 (ip), vehicle: saline
[7] = dose: 50.0 mg/kg/injection, schedule: Q01DX009 (ip), vehicle: Klucel (hydroxypropylcellulose) (HPC)
[8] = dose: 100.0 mg/kg/injection, schedule: Q01DX009 (ip), vehicle: Klucel (hydroxypropylcellulose) (HPC)
[9] = dose: 200.0 mg/kg/injection, schedule: Q01DX009 (ip), vehicle: Klucel (hydroxypropylcellulose) (HPC)
[10] = dose: 100.0 mg/kg/injection, schedule: Q04DX003 (ip), vehicle: saline with Tween-80
[11] = dose: 200.0 mg/kg/injection, schedule: Q04DX003 (ip), vehicle: saline with Tween-80
[12] = dose: 60.0 mg/kg/injection, schedule: Q01DX005 (ip), vehicle: saline with Tween-80
[13] = dose: 120.0 mg/kg/injection, schedule: Q01DX005 (ip), vehicle: saline with Tween-80
[14] = dose: 240.0 mg/kg/injection, schedule: Q01DX005 (ip), vehicle: saline with Tween-80
[15] = dose: 30.0 mg/kg/injection, schedule: Q01DX005 (ip), vehicle: saline with Tween-80
[16] = dose: 60.0 mg/kg/injection, schedule: Q01DX005 (ip), vehicle: saline
[17] = dose: 120.0 mg/kg/injection, schedule: Q01DX005 (ip), vehicle: saline
[18] = dose: 240.0 mg/kg/injection, schedule: Q01DX005 (ip), vehicle: saline
[19] = dose: 50.0 mg/kg/injection, schedule: Q01DX009 (ip), vehicle: saline with Tween-80
[20] = dose: 100.0 mg/kg/injection, schedule: Q01DX009 (ip), vehicle: saline
[21] = dose: 200.0 mg/kg/injection, schedule: Q01DX009 (ip), vehicle: saline

Measured: T/C

CC([NH-])CC(C)[NH-].O=C(O)C(=O)O.[Pt+2] (stereo unspecified)
active: dose: 12.5 mg/kg/injection, schedule: Q04DX002 (ip), vehicle: saline with Tween-80 150 % of control | dose: 25.0 mg/kg/injection, schedule: Q04DX002 (ip), vehicle: saline with Tween-80 174 % of control

CCCC(C(=O)OCCN(CC)CC)(c1ccccc1)c1ccccc1
inactive: [1] 108 % of control | [2] 100 % of control | [3] 100 % of control | [4] 100 % of control | [5] 91 % of control | [6] 100 % of control

O=C(NC(=O)c1ccccc1F)Nc1ccc(Cl)cc1
inactive: [7] 101 % of control | [8] 100 % of control | [9] 91 % of control

Cc1cccc(C(=O)/C=C2/CCCN2C)c1
inactive: [10] 110 % of control | [11] 93 % of control

CC1(C)C[C@H]2C=C(C=O)[C@]34C[C@]3(C(=O)OC4O)[C@H]2C1 (stereo partly specified)
inactive: dose: 0.18 mg/kg/injection, schedule: Q01DX009 (ip), vehicle: Klucel (hydroxypropylcellulose) (HPC) 103 % of control | dose: 0.78 mg/kg/injection, schedule: Q01DX009 (ip), vehicle: Klucel (hydroxypropylcellulose) (HPC) 111 % of control and 120 % of control | dose: 1.56 mg/kg/injection, schedule: Q01DX009 (ip), vehicle: Klucel (hydroxypropylcellulose) (HPC) 106 % of control and 117 % of control

CN1CCC(O)(C(O)(c2ccccc2)c2ccccc2)CC1
inactive: [12] 96 % of control | [13] 100 % of control | [14] 103 % of control

COC(=O)c1ccc(O)c([N+](=O)[O-])c1
inactive: dose: 50.0 mg/kg/injection, schedule: Q04DX003 (ip), vehicle: saline with Tween-80 100 % of control | [10] 109 % of control | [11] 100 % of control

S[C@@H]1CCCN1
inactive: dose: 50.0 mg/kg/injection, schedule: Q01DX005 (ip), vehicle: saline 97 % of control | dose: 100.0 mg/kg/injection, schedule: Q01DX005 (ip), vehicle: saline 102 % of control | dose: 200.0 mg/kg/injection, schedule: Q01DX005 (ip), vehicle: saline 99 % of control

C=Cc1ccc(NC(=O)CC2SC(=O)NC2=O)cc1 (stereo unspecified)
inactive: dose: 50.0 mg/kg/injection, schedule: Q01DX005 (ip), vehicle: saline with Tween-80 103 % of control | dose: 100.0 mg/kg/injection, schedule: Q01DX005 (ip), vehicle: saline with Tween-80 97 % of control | dose: 200.0 mg/kg/injection, schedule: Q01DX005 (ip), vehicle: saline with Tween-80 103 % of control

CCCCCCCCC[N+](C)([O-])CCCCCC[N+](C)([O-])CCCCCCCCC (stereo unspecified)
inactive: [2] 103 % of control | [4] 96 % of control | [6] 93 % of control

CC(C)CC1=C(C(=O)c2ccoc2)CC(C)C1 (stereo unspecified)
inactive: dose: 3.7 mg/kg/injection, schedule: Q01DX005 (ip), vehicle: Klucel (hydroxypropylcellulose) (HPC) 99 % of control | dose: 7.5 mg/kg/injection, schedule: Q01DX005 (ip), vehicle: Klucel (hydroxypropylcellulose) (HPC) 95 % of control | dose: 15.0 mg/kg/injection, schedule: Q01DX005 (ip), vehicle: Klucel (hydroxypropylcellulose) (HPC) 95 % of control

O=C(NCc1ccco1)Nc1cccc2c(NC(=O)NCc3ccco3)cccc12
inactive: [15] 100 % of control | [12] 97 % of control | [13] 90 % of control | [14] 86 % of control

OCC(O)C(Cl)CCl (stereo unspecified)
inactive: [16] 101 % of control | [17] 100 % of control | [18] 86 % of control

c1ccc2c(c1)CN1CCN=C1N2
inactive: [3] 100 % of control | [5] 94 % of control

Nc1ccc(CCCCc2ccc(S(=O)(=O)F)cc2Cl)c(Cl)c1
inactive: dose: 15.0 mg/kg/injection, schedule: Q01DX005 (ip), vehicle: saline with Tween-80 101 % of control | [15] 118 % of control | [19] 91 % of control | [12] 93 % of control | dose: 100.0 mg/kg/injection, schedule: Q01DX009 (ip), vehicle: saline with Tween-80 99 % of control | [13] 87 % of control | dose: 200.0 mg/kg/injection, schedule: Q01DX009 (ip), vehicle: saline with Tween-80 98 % of control | [14] 92 % of control

O=c1c2sc3ccccc3c2ncn1/N=C/c1ccc(Cl)cc1
inactive: dose: 50.0 mg/kg/injection, schedule: Q01DX005 (ip), vehicle: Klucel (hydroxypropylcellulose) (HPC) 105 % of control | dose: 100.0 mg/kg/injection, schedule: Q01DX005 (ip), vehicle: Klucel (hydroxypropylcellulose) (HPC) 96 % of control | dose: 200.0 mg/kg/injection, schedule: Q01DX005 (ip), vehicle: Klucel (hydroxypropylcellulose) (HPC) 88 % of control

Clc1cnc(/N=C/c2ccc(/C=N/c3ncc(Cl)cc3Cl)cc2)c(Cl)c1
inactive: [5] 100 % of control | [20] 101 % of control | [21] 102 % of control

Cc1cc2c(=O)c3ccccc3oc2c(C#N)c1C
inactive: [16] 97 % of control | [17] 91 % of control | [18] 89 % of control

O=C(Cc1nc2cc(Cl)c(Cl)cc2nc1CC(=O)c1ccccc1)c1ccccc1
inactive: [12] 102 % of control | [13] 94 % of control | [14] 96 % of control

CC(=O)Oc1ccc(/C=N/NC(N)=S)nc1
inactive: dose: 150.0 mg/kg/injection, schedule: Q01DX009 (ip), vehicle: saline with Tween-80 88 % of control
active: dose: 4.0 mg/kg/injection, schedule: Q01DX009 (ip), vehicle: saline with Tween-80 154 % of control | dose: 14.6 mg/kg/injection, schedule: Q01DX009 (ip), vehicle: saline with Tween-80 163 % of control | dose: 22.0 mg/kg/injection, schedule: Q01DX009 (ip), vehicle: saline with Tween-80 177 % of control | dose: 33.0 mg/kg/injection, schedule: Q01DX009 (ip), vehicle: saline with Tween-80 181 % of control | dose: 37.5 mg/kg/injection, schedule: Q01DX009 (ip), vehicle: saline with Tween-80 170 % of control | [19] 204 % of control | dose: 75.0 mg/kg/injection, schedule: Q01DX009 (ip), vehicle: saline with Tween-80 173 % of control

NC1(O)C(=O)NC(=O)NC1=O
inactive: [16] 101 % of control | [17] 93 % of control | [18] 88 % of control

S=C(S)N1CCCC1
inactive: [5] 100 % of control | [20] 93 % of control

O=[N+]([O-])c1ccc(O)c(CNCCCl)c1
inactive: dose: 25.0 mg/kg/injection, schedule: Q04DX002 (ip), vehicle: DMSO 95 % of control | dose: 50.0 mg/kg/injection, schedule: Q04DX002 (ip), vehicle: DMSO 98 % of control | dose: 100.0 mg/kg/injection, schedule: Q04DX002 (ip), vehicle: DMSO 89 % of control

[CH3][Ge]([CH3])[CH3].[CH3][Ge]([CH3])[CH3]
inactive: [5] 95 % of control | [20] 91 % of control | [21] 97 % of control

C=CC[n+]1ccc2ccccc2c1
inactive: dose: 25.0 mg/kg/injection, schedule: Q01DX009 (ip), vehicle: saline sonified 90 % of control | dose: 50.0 mg/kg/injection, schedule: Q01DX009 (ip), vehicle: saline sonified 90 % of control | dose: 100.0 mg/kg/injection, schedule: Q01DX009 (ip), vehicle: saline sonified 95 % of control

NC1(c2ccccc2)CON=C(c2ccccc2)C1 (stereo unspecified)
inactive: dose: 6.25 mg/kg/injection, schedule: Q04DX003 (ip), vehicle: saline 109 % of control | [2] 104 % of control | [4] 102 % of control | dose: 100.0 mg/kg/injection, schedule: Q04DX003 (ip), vehicle: saline 100 % of control

OC1C[n+]2cc3ccccn3c2-c2cccc[n+]21 (stereo unspecified)
inactive: [1] 94 % of control | [3] 97 % of control | [5] 100 % of control

CCCCCCOc1ccc(C(=O)Oc2ccc(OC(=O)c3ccc(N)cc3)cc2)cc1
inactive: [7] 102 % of control | [8] 100 % of control | [9] 100 % of control

CCOC(=O)C1=CCC(n2cc(F)c(=O)[nH]c2=O)O1 (stereo unspecified)
inactive: [5] 98 % of control | [20] 101 % of control | [21] 99 % of control | dose: 400.0 mg/kg/injection, schedule: Q01DX009 (ip), vehicle: saline 110 % of control

CCN1C(=O)C(C)C(=O)N(C)C1=O (stereo unspecified)
inactive: [16] 110 % of control | [17] 100 % of control | [18] 100 % of control

O=P(C(=S)NC1CC2C=CC1C2)(c1ccccc1)c1ccccc1 (stereo unspecified)
inactive: dose: 25.0 mg/kg/injection, schedule: Q01DX009 (ip), vehicle: Klucel (hydroxypropylcellulose) (HPC) 95 % of control | [7] 100 % of control and 88 % of control | [8] 91 % of control | [9] 90 % of control
